# In ChEMBL document CHEMBL4024706 (Eur J Med Chem, 2017):
# Legend:
# [1] = AUC (0 to infinity) in Sprague-Dawley rat at 10 mg/kg, po by LC-MS/MS method; assay type: ADME, organism-based; parameters: dose 10 mg/kg, route oral, time infinity; settings: in vivo
# [2] = Tmax in Sprague-Dawley rat at 1 mg/kg, iv by LC-MS/MS method; assay type: ADME, organism-based; settings: in vivo
# [3] = target: Protein-tyrosine kinase 6 (Homo sapiens) (UniProt Q13882); assay: Inhibition of wild-type human partial length BRK (L166 to T451 residues) expressed in bacterial expression system assessed as residual activity at 1 uM by Kinomescan method relative to control
# [4] = target: Cyclin-dependent kinase-like 1 (Homo sapiens) (UniProt Q00532); assay: Inhibition of wild-type human full length CDKL1 (M1 to I358 residues) expressed in mammalian expression system assessed as residual activity at 1 uM by Kinomescan method relative to control
# [5] = target: Casein kinase I isoform epsilon (Homo sapiens) (UniProt P49674); assay: Inhibition of wild-type human full length CSNK1E (M1 to K416 residues) expressed in bacterial expression system assessed as residual activity at 1 uM by Kinomescan method relative to control
# [6] = target: Serine/threonine-protein kinase DCLK3 (Homo sapiens) (UniProt Q9C098); assay: Inhibition of wild-type human partial length DCAMKL3 (E140 to V628 residues) expressed in bacterial expression system assessed as residual activity at 1 uM by Kinomescan method relative to control
# [7] = target: Serine/threonine-protein kinase 17A (Homo sapiens) (UniProt Q9UEE5); assay: Inhibition of wild-type human partial length DRAK1 (R32 to E363 residues) expressed in bacterial expression system assessed as residual activity at 1 uM by Kinomescan method relative to control
# Serine/threonine-protein kinase 17A (Homo sapiens), sequence (Q9UEE5 whole entry, the tested form may be a part): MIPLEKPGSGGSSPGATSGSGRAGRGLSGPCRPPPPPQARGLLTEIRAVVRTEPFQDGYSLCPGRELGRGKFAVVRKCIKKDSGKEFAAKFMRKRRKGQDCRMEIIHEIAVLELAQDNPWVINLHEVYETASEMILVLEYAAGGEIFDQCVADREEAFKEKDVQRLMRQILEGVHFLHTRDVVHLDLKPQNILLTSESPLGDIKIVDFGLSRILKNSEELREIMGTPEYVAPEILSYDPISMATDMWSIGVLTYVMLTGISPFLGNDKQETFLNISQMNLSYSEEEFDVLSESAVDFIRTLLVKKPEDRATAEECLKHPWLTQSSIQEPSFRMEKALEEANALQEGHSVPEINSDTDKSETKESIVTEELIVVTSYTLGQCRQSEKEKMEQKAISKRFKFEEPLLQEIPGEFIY
# [8] = target: Dual specificity tyrosine-phosphorylation-regulated kinase 2 (Homo sapiens) (UniProt Q92630); assay: Inhibition of wild-type human full length DYRK2 (M1 to S528 residues) expressed in mammalian expression system assessed as residual activity at 1 uM by Kinomescan method relative to control
# [9] = target: Receptor tyrosine-protein kinase erbB-2 (Homo sapiens) (UniProt P04626); assay: Inhibition of wild-type human partial length ERBB2 (K646 to V1225 residues) expressed in mammalian expression system assessed as residual activity at 1 uM by Kinomescan method relative to control
# Receptor tyrosine-protein kinase erbB-2 (Homo sapiens), sequence (P04626 whole entry, the tested form may be a part): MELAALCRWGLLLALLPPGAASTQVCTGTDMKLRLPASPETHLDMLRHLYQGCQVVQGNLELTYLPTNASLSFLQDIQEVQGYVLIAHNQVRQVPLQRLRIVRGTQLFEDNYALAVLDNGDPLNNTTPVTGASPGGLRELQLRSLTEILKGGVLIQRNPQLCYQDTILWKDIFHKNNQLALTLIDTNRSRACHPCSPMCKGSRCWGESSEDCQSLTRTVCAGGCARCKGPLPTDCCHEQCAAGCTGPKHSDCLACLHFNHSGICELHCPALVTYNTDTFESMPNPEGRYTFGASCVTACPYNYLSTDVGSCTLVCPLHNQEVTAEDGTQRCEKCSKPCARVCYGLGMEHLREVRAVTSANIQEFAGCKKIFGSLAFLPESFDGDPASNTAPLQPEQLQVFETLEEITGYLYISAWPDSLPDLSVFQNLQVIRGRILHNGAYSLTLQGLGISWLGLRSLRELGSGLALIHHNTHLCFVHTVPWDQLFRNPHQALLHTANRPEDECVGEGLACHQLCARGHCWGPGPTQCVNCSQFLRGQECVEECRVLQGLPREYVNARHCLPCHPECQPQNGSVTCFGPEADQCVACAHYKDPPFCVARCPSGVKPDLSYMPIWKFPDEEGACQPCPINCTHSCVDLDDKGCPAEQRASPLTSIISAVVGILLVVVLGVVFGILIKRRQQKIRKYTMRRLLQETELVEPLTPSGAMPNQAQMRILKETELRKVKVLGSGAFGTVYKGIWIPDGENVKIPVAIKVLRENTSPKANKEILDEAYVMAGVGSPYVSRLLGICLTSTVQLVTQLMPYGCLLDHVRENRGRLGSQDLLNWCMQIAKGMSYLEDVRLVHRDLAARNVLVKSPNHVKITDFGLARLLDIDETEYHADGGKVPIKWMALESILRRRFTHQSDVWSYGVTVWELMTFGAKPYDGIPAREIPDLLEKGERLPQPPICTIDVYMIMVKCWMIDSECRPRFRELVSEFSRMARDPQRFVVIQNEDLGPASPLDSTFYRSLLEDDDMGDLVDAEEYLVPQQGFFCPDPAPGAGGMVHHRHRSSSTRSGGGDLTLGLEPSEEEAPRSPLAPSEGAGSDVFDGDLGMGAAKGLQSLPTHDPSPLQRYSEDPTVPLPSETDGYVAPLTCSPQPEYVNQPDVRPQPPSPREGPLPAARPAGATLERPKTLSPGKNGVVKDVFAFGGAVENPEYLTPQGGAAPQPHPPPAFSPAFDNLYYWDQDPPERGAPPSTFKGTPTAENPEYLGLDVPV
# [10] = target: Tyrosine-protein kinase Fer (Homo sapiens) (UniProt P16591); assay: Inhibition of wild-type human partial length FER (S542 to T822 residues) expressed in bacterial expression system assessed as residual activity at 1 uM by Kinomescan method relative to control
# [11] = target: Tyrosine-protein kinase Fyn (Homo sapiens) (UniProt P06241); assay: Inhibition of wild-type human partial length FYN (T243 to L534 residues) expressed in bacterial expression system assessed as residual activity at 1 uM by Kinomescan method relative to control
# Tyrosine-protein kinase Fyn (Homo sapiens), sequence (P06241 2-537 limits assumed): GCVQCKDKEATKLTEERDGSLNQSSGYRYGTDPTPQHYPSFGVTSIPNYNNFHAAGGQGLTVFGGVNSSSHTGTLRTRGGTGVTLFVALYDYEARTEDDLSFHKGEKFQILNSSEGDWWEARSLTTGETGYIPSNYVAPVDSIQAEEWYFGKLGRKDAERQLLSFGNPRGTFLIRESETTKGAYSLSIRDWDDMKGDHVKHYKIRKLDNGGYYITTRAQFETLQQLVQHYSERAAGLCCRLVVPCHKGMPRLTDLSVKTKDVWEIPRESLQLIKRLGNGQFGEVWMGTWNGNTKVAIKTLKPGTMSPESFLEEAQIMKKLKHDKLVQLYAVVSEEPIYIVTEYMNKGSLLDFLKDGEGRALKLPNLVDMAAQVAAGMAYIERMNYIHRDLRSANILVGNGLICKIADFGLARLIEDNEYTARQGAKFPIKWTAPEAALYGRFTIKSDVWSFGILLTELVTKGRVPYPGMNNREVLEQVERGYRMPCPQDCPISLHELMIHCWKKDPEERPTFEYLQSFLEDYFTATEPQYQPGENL
# [12] = target: Inhibitor of nuclear factor kappa-B kinase subunit beta (Homo sapiens) (UniProt O14920); assay: Inhibition of wild-type human full length IKK-beta (M1 to S756 residues) expressed in mammalian expression system assessed as residual activity at 1 uM by Kinomescan method relative to control
# [13] = target: Mitogen-activated protein kinase kinase kinase 1 (Homo sapiens) (UniProt Q13233); assay: Inhibition of wild-type human partial length MAP3K1 (L1202 to W1512 residues) expressed in mammalian expression system assessed as residual activity at 1 uM by Kinomescan method relative to control
# [14] = target: Mitogen-activated protein kinase kinase kinase 3 (Homo sapiens) (UniProt Q99759); assay: Inhibition of wild-type human partial length MAP3K3 (E320 to Y626 residues) expressed in mammalian expression system assessed as residual activity at 1 uM by Kinomescan method relative to control
# [15] = target: Misshapen-like kinase 1 (Homo sapiens) (UniProt Q8N4C8); assay: Inhibition of wild-type human partial length MINK (M1 to K312 residues) expressed in mammalian expression system assessed as residual activity at 1 uM by Kinomescan method relative to control
# [16] = target: Dual specificity mitogen-activated protein kinase kinase 7 (Homo sapiens) (UniProt O14733); assay: Inhibition of wild-type human full length MKK7 (M1 to R419 residues) expressed in mammalian expression system assessed as residual activity at 1 uM by Kinomescan method relative to control
# Dual specificity mitogen-activated protein kinase kinase 7 (Homo sapiens), sequence (O14733 whole entry, the tested form may be a part): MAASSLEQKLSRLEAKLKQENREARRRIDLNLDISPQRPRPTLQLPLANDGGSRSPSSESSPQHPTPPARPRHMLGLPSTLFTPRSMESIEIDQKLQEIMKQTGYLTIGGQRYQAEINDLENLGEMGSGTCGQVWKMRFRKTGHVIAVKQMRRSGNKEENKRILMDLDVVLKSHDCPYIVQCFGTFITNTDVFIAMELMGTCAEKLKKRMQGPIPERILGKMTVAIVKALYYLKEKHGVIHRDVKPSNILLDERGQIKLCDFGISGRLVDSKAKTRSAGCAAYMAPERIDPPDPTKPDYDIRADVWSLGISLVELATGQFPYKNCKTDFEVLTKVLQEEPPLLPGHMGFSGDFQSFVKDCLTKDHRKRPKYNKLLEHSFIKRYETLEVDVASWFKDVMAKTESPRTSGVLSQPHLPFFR
# [17] = target: Cyclin-dependent kinase 14 (Homo sapiens) (UniProt O94921); assay: Inhibition of wild-type human full length PFTK1 (M1 to H451 residues) expressed in bacterial expression system assessed as residual activity at 1 uM by Kinomescan method relative to control
# [18] = target: Serine/threonine-protein kinase N2 (Homo sapiens) (UniProt Q16513); assay: Inhibition of wild-type human partial length PKN2 (E634 to C984 residues) expressed in bacterial expression system assessed as residual activity at 1 uM by Kinomescan method relative to control
# [19] = target: Serine/threonine-protein kinase RIO2 (Homo sapiens) (UniProt Q9BVS4); assay: Inhibition of wild-type human partial length RIOK2 (M1 to D313 residues) expressed in mammalian expression system assessed as residual activity at 1 uM by Kinomescan method relative to control
# [20] = target: Receptor-interacting serine/threonine-protein kinase 2 (Homo sapiens) (UniProt O43353); assay: Inhibition of wild-type human partial length RIPK2 (M1 to K310 residues) expressed in bacterial expression system assessed as residual activity at 1 uM by Kinomescan method relative to control
# [21] = target: Rho-associated protein kinase 2 (Homo sapiens) (UniProt O75116); assay: Inhibition of wild-type human partial length ROCK2 (M1 to T431 residues) expressed in mammalian expression system assessed as residual activity at 1 uM by Kinomescan method relative to control
# [22] = target: Ribosomal protein S6 kinase alpha-6 (Homo sapiens) (UniProt Q9UK32); assay: Inhibition of wild-type human partial length C-terminal RSK4 kinase domain 2 (I401 to Y711 residues) expressed in bacterial expression system assessed as residual activity at 1 uM by Kinomescan method relative to control
# [23] = target: Ribosomal protein S6 kinase beta-1 (Homo sapiens) (UniProt P23443); assay: Inhibition of wild-type human partial length S6K1 (M1 to S421 residues) expressed in mammalian expression system assessed as residual activity at 1 uM by Kinomescan method relative to control
# [24] = target: Serine/threonine-protein kinase TAO2 (Homo sapiens) (UniProt Q9UL54); assay: Inhibition of wild-type human partial length TAOK2 (M1 to A320 residues) expressed in mammalian expression system assessed as residual activity at 1 uM by Kinomescan method relative to control
# [25] = target: Wee1-like protein kinase 2 (Homo sapiens) (UniProt P0C1S8); assay: Inhibition of wild-type human partial length WEE2 (M204 to K492 residues) expressed in bacterial expression system assessed as residual activity at 1 uM by Kinomescan method relative to control
# [26] = target: Serine/threonine-protein kinase WNK1 (Homo sapiens) (UniProt Q9H4A3); assay: Inhibition of wild-type human partial length WNK1 (Q194 to A490 residues) expressed in mammalian expression system assessed as residual activity at 1 uM by Kinomescan method relative to control
# Serine/threonine-protein kinase WNK1 (Homo sapiens), sequence (Q9H4A3 whole entry, looked up, the tested form may be a part): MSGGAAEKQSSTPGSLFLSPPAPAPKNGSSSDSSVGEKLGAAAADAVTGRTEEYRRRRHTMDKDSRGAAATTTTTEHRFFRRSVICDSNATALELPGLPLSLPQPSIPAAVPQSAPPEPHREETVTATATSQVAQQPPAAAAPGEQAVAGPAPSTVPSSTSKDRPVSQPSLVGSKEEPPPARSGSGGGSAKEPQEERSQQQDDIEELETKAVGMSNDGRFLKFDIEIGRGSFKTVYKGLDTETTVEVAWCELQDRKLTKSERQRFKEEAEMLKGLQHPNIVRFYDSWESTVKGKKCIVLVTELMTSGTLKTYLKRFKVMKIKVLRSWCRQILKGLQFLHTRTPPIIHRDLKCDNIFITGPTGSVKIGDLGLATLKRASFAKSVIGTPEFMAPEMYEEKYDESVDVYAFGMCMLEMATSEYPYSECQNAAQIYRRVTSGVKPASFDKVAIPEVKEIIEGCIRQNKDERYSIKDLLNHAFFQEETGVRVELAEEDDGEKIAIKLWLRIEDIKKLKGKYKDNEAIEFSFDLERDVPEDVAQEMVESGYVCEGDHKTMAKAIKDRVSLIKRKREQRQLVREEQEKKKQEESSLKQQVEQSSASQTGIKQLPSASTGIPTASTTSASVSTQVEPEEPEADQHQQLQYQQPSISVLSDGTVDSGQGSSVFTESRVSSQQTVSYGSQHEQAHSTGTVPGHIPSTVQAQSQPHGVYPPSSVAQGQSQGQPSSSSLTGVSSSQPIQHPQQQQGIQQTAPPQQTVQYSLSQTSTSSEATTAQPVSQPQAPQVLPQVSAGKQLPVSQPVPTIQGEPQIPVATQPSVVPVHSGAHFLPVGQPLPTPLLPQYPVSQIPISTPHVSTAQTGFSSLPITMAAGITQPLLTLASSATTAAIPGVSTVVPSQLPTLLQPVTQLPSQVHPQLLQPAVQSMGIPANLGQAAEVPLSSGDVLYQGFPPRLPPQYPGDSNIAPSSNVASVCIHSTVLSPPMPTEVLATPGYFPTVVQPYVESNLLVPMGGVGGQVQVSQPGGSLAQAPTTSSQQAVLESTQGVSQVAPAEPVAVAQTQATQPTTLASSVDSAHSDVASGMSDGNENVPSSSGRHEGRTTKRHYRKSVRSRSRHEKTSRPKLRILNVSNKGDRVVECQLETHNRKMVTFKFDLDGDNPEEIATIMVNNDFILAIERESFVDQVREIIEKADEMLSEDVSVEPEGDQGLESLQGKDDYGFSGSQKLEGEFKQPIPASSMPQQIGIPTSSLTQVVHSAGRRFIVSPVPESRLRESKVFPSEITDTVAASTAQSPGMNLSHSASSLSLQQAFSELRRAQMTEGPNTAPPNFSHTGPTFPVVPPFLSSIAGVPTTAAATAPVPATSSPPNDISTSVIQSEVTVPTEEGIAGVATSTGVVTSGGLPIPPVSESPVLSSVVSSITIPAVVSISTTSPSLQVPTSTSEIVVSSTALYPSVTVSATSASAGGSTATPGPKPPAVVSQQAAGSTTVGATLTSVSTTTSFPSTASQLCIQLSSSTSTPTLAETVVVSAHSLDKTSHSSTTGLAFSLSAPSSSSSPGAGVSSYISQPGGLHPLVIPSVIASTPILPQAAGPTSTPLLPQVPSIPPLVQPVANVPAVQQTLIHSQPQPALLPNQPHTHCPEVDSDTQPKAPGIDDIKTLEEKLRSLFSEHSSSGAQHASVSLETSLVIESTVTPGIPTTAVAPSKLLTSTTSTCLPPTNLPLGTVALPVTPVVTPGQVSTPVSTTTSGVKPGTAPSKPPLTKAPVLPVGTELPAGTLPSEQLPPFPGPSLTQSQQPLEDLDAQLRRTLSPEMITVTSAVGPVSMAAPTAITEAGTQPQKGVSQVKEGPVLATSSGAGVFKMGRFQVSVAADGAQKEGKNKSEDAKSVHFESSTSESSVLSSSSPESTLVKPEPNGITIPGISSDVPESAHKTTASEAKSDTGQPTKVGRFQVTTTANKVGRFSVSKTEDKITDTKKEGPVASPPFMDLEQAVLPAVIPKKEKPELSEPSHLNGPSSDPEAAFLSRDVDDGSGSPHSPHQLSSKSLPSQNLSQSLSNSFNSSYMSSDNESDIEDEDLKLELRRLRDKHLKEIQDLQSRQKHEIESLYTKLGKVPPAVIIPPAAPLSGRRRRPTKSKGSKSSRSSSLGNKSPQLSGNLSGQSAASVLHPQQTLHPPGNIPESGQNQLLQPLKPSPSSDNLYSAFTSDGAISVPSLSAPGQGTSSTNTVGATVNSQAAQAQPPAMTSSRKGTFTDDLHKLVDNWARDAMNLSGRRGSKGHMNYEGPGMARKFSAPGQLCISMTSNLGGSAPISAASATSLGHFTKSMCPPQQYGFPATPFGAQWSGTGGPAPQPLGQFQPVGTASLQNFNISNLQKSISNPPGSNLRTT
smiles,measurement,setting,value
C=CC(=O)Nc1cc(Nc2cc(-c3cccc(NC(=O)c4ccc(C(C)(C)C)cc4)c3C)cn(C)c2=O)ccc1C(=O)N1CCOCC1,AUC(0-inf),[1],34.5 ng·h/mL
same,Tmax,[2],1.02 min
same,Activity,[3],96%
same,Activity,[4],100%
same,Activity,[5],100%
same,Activity,[6],100%
same,Activity,[7],82%
same,Activity,[8],97%
same,Activity,[9],97%
same,Activity,[10],99%
same,Activity,[11],73%
same,Activity,[12],100%
same,Activity,[13],91%
same,Activity,[14],100%
same,Activity,[15],82%
same,Activity,[16],100%
same,Activity,[17],93%
same,Activity,[18],93%
same,Activity,[19],100%
same,Activity,[20],62%
same,Activity,[21],92%
same,Activity,[22],89%
same,Activity,[23],100%
same,Activity,[24],89%
same,Activity,[25],100%
same,Activity,[26],89%
